The experiment can be described thus: LPS model of sepsis, autoregulation of arterial pressure / afferent arteriolar autoregulatory behavior. The class given is in vivo. The note with it: LPS treated rats, CAP treatment. As for the experimental part:
FIGS. 16A-16B. Treatment with CAP restores afferent arteriolar autoregulatory behavior in chronic LPS (0.1 mg/kg/day) treated kidneys. Each data point represents the mean±SE. * P<0.05 vs. control diameter in the same group. ‡ P<0.05 vs. control for the same perfusion pressure. # P<0.05 vs. CAP for the same perfusion pressure.
Sepsis is a potentially life-threatening condition, is caused by excessive inflammation resulting from the body trying to fend off infection. […] LPS treatment (0.84 mg/kg) of rats is used as a model of sepsis and results in loss of arterial pressure that is inflammatory and mimics loss of autoregulation in sepsis. We discovered that autoregulation of arterial pressure can be restored with CAP treatment (FIG. 16), further supporting its use to treat infectious disease associated with sepsis.

For the sequence FRIMAVLAS [CAP, α7nAChR agonist], the “autoregulation of arterial pressure (afferent arteriolar autoregulatory behavior)” value is recorded as “restores”.

The record behind these values is patent US20230226135A9, “ACETYLCHOLINE MODULATION OF IMMUNE FUNCTION” (BCell Solutions, Inc., priority 2019, published 2023).
